The values below come from US11407736B2 (priority 2019, dated 2022).

One assay addresses RIPK1 (Homo sapiens (Human), UniProt Q13546). As to the kind of experiment: RIPK1 ADP-Glo biochemical kinase assay. As to the method: The final reaction volume was 5.0ul.
Adding 5 μl of ADP-Glo™ terminated the reaction.

Another assay has as its system L929 cells. As to the kind of experiment: L929 cell necroptosis assay (TNFa + zVAD, CellTiter-Glo). Format: cell-based, murine. An outline of the steps: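 Murine L929 cells, plated 18 h beforehand at 10K cells/well in RPMI 1640 with 10% FBS, were switched to medium containing 40 uM zVAD-fmk and given compound from 4-fold serial dilutions. Viability after 18 h of TNFa stimulation at 37° C was read by CellTiter-Glo luminescence.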
On the technique in general: ATP-based viability assays read luminescence as a measure of living cells.

A further assay relates to U937 cells. As to the kind of experiment: U937 cell necroptosis assay (TNFa + zVAD, CellTiter-Glo). Format: cell-based, human. To be noted: TNFa + zVAD, read-out: U937 Zvad TNF CTG Recovery, U937, TNFa + zVAD (IC50). In short, it runs like this: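 Human U937 and murine L929 cells in RPMI 1640/10% FBS were pre-incubated 1 h at 37 °C with serially diluted compound plus zVAD-fmk (U937 plated with 60 uM, L929 medium with 40 uM), then stimulated with 2 ng/mL TNFa (final). Viability read by CellTiter-Glo luminescence after 18 h.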

[1] abbreviates: read-out: RIPK1 ADP-Glo Kinase (IC50).
The mark [2] stands for this setting: Mus musculus, L929, L929 cells, TNFa + zVAD, read-out: L929-CTG-recovery, L929, TNFa + zVAD (IC50).
Setting [3] is: Homo sapiens, U-937, U937 cells.

Structures are written as SMILES. Where a name gives a salt, the structure may show the parent alone. Read-outs that look alike come from different tables or passages of the source.

One may read the IC50 as the midpoint of a concentration-inhibition curve.

Chain of RIPK1 (Q13546 whole entry, species assumed): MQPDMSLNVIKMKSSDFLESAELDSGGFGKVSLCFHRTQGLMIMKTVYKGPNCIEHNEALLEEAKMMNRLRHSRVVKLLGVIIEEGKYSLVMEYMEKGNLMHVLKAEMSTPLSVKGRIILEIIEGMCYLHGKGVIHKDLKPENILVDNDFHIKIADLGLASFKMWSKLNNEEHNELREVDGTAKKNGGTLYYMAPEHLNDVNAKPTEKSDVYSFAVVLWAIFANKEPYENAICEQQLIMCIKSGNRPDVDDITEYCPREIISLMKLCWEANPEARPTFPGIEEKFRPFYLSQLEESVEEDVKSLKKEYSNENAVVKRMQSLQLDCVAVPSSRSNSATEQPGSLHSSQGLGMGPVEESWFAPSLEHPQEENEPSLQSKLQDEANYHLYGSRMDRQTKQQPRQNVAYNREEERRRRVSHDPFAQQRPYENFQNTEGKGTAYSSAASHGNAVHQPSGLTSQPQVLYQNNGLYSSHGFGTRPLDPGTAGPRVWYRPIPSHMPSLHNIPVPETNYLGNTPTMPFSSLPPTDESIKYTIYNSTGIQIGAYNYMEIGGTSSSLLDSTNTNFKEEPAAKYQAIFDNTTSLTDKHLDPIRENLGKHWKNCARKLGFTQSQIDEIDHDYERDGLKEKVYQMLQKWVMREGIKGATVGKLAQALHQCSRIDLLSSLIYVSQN

For the compound `CN1C(=O)[C@@H](NC(=O)c2n[nH]c(Cc3ccccc3)n2)COc2ccc(CN3CCn4nc(C(F)(F)F)nc4C3)cc21` [Compound I-40, (S)-5-benzyl-N-(5-methyl-4-oxo-7-((2-(trifluoromethyl)-5,6-dihydro-[1,2,4]triazolo[1,5-a]pyrazin-7(8H)-yl)methyl)-2,3,4,5-tetrahydrobenzo[b][1,4]oxazepin-3-yl)-1H-1,2,4-triazole-3-carboxamide], the IC50 was 88.7 nM at RIPK1 (setting [1]), 0.3 nM in the assay on L929 cells (setting [2]) and 2.3 nM with U937 cells (setting [3]).
In the case of `CN1C(=O)[C@@H](NC(=O)c2cc(Oc3ccccc3)ccn2)COc2ccc(C#CC(C)(C)COC(=O)CCC(=O)O)cc21` [Compound I-144, (S)-4-((2,2-dimethyl-4-(5-methyl-4-oxo-3-(4-phenoxypicolinamido)-2,3,4,5-tetrahydrobenzo[b][1,4]oxazepin-7-yl)but-3-yn-1-yl)oxy)-4-oxobutanoic acid], the IC50 amounted to 22 nM on RIPK1 (setting [1]), 156 nM in the assay on L929 cells (setting [2]) and 1.2 nM in the assay on U937 cells (setting [3]).
On to `CC(C)CCc1ccc2c(c1)N(C)C(=O)[C@@H](NC(=O)c1n[nH]c(Cc3ccccc3)n1)CO2` [Compound I-60, (S)-5-benzyl-N-(7-isopentyl-5-methyl-4-oxo-2,3,4,5-tetrahydrobenzo[b][1,4]oxazepin-3-yl)-1H-1,2,4-triazole-3-carboxamide], for which the results for the IC50 at RIPK1 (setting [1]), with L929 cells (setting [2]) and in the assay on U937 cells (setting [3]) were 64.4 nM, 2.4 nM and 4.8 nM, respectively.
Regarding `CN1C(=O)[C@@H](NC(=O)c2n[nH]c(Cc3ccccc3)n2)COc2ccc(C#CC(C)(C)O)cc21` [Compound I-30, (S)-5-benzyl-N-(7-(3-hydroxy-3-methylbut-1-yn-1-yl)-5-methyl-4-oxo-2,3,4,5-tetrahydrobenzo[b][1,4]oxazepin-3-yl)-1H-1,2,4-triazole-3-carboxamide], the IC50 against RIPK1 is 40.2 nM; in the assay with L929 cells (setting [2]) it was 72.3 nM; with U937 cells (setting [3]), 3.6 nM.
Take `CC(C)Cn1cnc(C(=O)N[C@H]2COc3ccc(C#CC(C)(C)O)cc3N(C)C2=O)n1` [Compound I-85, (S)—N-(7-(3-hydroxy-3-methylbut-1-yn-1-yl)-5-methyl-4-oxo-2,3,4,5-tetrahydrobenzo[b][1,4]oxazepin-3-yl)-1-isobutyl-1H-1,2,4-triazole-3-carboxamide]: the IC50 on RIPK1 (setting [1]) turned out to be 42.3 nM; with L929 cells (setting [2]) it was 0.6 nM; in the assay on U937 cells (setting [3]), 3.3 nM.
Regarding `CN1C(=O)[C@@H](NC(=O)c2n[nH]c(Cc3ccccc3F)n2)COc2ccc(C#CC(C)(C)C)cc21` [Compound I-89, (S)—N-(7-(3,3-dimethylbut-1-yn-1-yl)-5-methyl-4-oxo-2,3,4,5-tetrahydrobenzo[b][1,4]oxazepin-3-yl)-5-(2-fluorobenzyl)-1H-1,2,4-triazole-3-carboxamide], the results for the IC50 on RIPK1 (setting [1]), with L929 cells (setting [2]) and with U937 cells (setting [3]) were 52.7 nM, 0.7 nM and 4.5 nM, respectively.
With `Cc1cccc(C)c1Oc1ccnc(C(=O)N[C@H]2COc3ccc(C#CC(C)(C)O)cc3N(C)C2=O)c1` [Compound I-124, (S)-4-(2,6-dimethylphenoxy)-N-(7-(3-hydroxy-3-methylbut-1-yn-1-yl)-5-methyl-4-oxo-2,3,4,5-tetrahydrobenzo[b][1,4]oxazepin-3-yl)picolinamide], the IC50 came to 93.5 nM on RIPK1 (setting [1]), 2120 nM with L929 cells (setting [2]) and 88.7 nM in the assay on U937 cells (setting [3]).
As for `CN1C(=O)[C@@H](NC(=O)c2ncn(Cc3ccc(-c4ccccc4)cc3)n2)COc2ccc(C#CC(C)(C)O)cc21` [Compound I-83, (S)-1-([1,1′-biphenyl]-4-ylmethyl)-N-(7-(3-hydroxy-3-methylbut-1-yn-1-yl)-5-methyl-4-oxo-2,3,4,5-tetrahydrobenzo[b][1,4]oxazepin-3-yl)-1H-1,2,4-triazole-3-carboxamide], the IC50 on RIPK1 (setting [1]) was 66.4 nM; in the assay with L929 cells (setting [2]), 0.1 nM; with U937 cells (setting [3]) it was 1 nM.
For the compound `CN1C(=O)[C@@H](NC(=O)c2n[nH]c(Cc3ccc(F)cc3)n2)COc2ccc(C#CC(C)(C)O)cc21` [Compound I-79, (S)-5-(4-fluorobenzyl)-N-(7-(3-hydroxy-3-methylbut-1-yn-1-yl)-5-methyl-4-oxo-2,3,4,5-tetrahydrobenzo[b][1,4]oxazepin-3-yl)-1H-1,2,4-triazole-3-carboxamide], the IC50 is 34.7 nM at RIPK1 (setting [1]), 0.8 nM in the assay with L929 cells (setting [2]) and 5.1 nM with U937 cells (setting [3]).
As to `CN1C(=O)[C@@H](NC(=O)c2n[nH]c(Cc3ccccc3)n2)COc2ccc(CCC(=O)N3CCCC3)cc21` [Compound I-10, (S)-5-benzyl-N-(5-methyl-4-oxo-7-(3-oxo-3-(pyrrolidin-1-yl)propyl)-2,3,4,5-tetrahydrobenzo[b][1,4]oxazepin-3-yl)-1H-1,2,4-triazole-3-carboxamide], the IC50 at RIPK1 (setting [1]) was found to be 42.9 nM; in the assay with L929 cells (setting [2]) it was 11200 nM; with U937 cells (setting [3]) it was 7.9 nM.
As to `CN1C(=O)[C@@H](NC(=O)c2ncn(Cc3ccccc3)n2)COc2ccc(C#CC(C)(C)O)cc21` [Compound I-29, (S)-1-benzyl-N-(7-(3-hydroxy-3-methylbut-1-yn-1-yl)-5-methyl-4-oxo-2,3,4,5-tetrahydrobenzo[b][1,4]oxazepin-3-yl)-1H-1,2,4-triazole-3-carboxamide], the 50% inhibitory concentration (IC50) at RIPK1 (setting [1]) stood at 12.4 nM; with L929 cells (setting [2]), 8.8 nM; with U937 cells (setting [3]) it was 2.3 nM.
As for `CN1C(=O)[C@@H](NC(=O)c2n[nH]c(Cc3ccccc3)n2)COc2ccc(CCC(=O)Nc3ccc4cccnc4c3)cc21` [Compound I-12, (S)-5-benzyl-N-(5-methyl-4-oxo-7-(3-oxo-3-(quinolin-7-ylamino)propyl)-2,3,4,5-tetrahydrobenzo[b][1,4]oxazepin-3-yl)-1H-1,2,4-triazole-3-carboxamide], the IC50 on RIPK1 (setting [1]) turned out to be 52 nM; in the assay with L929 cells (Mus musculus, L929, read-out: L929-CTG-recovery, L929, TNFa + zVAD (IC50), L929 cells, TNFa + zVAD) it was 42000 nM; in the assay on U937 cells (setting [3]) it was 5.3 nM.
Consider `CN1C(=O)[C@@H](NC(=O)c2cc(Oc3ccccc3)ccn2)COc2ccc(C#CC3(O)CCNCC3)cc21` [Compound I-132, (S)—N-(7-((4-hydroxypiperidin-4-yl)ethynyl)-5-methyl-4-oxo-2,3,4,5-tetrahydrobenzo[b][1,4]oxazepin-3-yl)-4-phenoxypicolinamide], for which the half-inhibitory concentration (IC50) is 30.5 nM at RIPK1 (setting [1]), 4600 nM in the assay with L929 cells (setting [2]) and 35.9 nM in the assay on U937 cells (setting [3]).
As to `CC(C)[C@H](N)C(=O)OC1(C#Cc2ccc3c(c2)N(C)C(=O)[C@@H](NC(=O)c2cc(Oc4ccccc4)ccn2)CO3)COC1` [Compound I-164, 3-4(S)-5-methyl-4-oxo-3-(4-phenoxypicolinamido)-2,3,4,5-tetrahydrobenzo[b][1,4]oxazepin-7-yl)ethynyl)oxetan-3-yl L-valinate benzenesulfonic acid salt], the IC50 at RIPK1 (setting [1]) is 71.7 nM; in the assay with L929 cells (L929 cells, TNFa + zVAD, read-out: L929-CTG-recovery, L929, TNFa + zVAD (IC50)), 31.9 nM; with U937 cells (U937 cells) it was 0.7 nM.
`CN1C(=O)[C@@H](NC(=O)c2n[nH]c(Cc3ccccc3)n2)COc2ccc(C#CCCOc3ccc4ncccc4c3)cc21` [Compound I-38, (S)-5-benzyl-N-(5-methyl-4-oxo-7-(4-(quinolin-6-yloxy)but-1-yn-1-yl)-2,3,4,5-tetrahydrobenzo[b][1,4]oxazepin-3-yl)-1H-1,2,4-triazole-3-carboxamide]: the IC50 at RIPK1 (setting [1]) is 68 nM; in the assay with L929 cells (setting [2]), 0.5 nM; with U937 cells (setting [3]), 3.6 nM.
Consider `CN1C(=O)[C@@H](NC(=O)c2n[nH]c(Cc3ccccc3)n2)COc2ccc(C#CC3(O)CCOCC3)cc21` [Compound I-55, (S)-5-benzyl-N-(7-((4-hydroxytetrahydro-2H-pyran-4-yl)ethynyl)-5-methyl-4-oxo-2,3,4,5-tetrahydrobenzo[b][1,4]oxazepin-3-yl)-1H-1,2,4-triazole-3-carboxamide], for which the IC50 came to 33.7 nM on RIPK1 (setting [1]), 0.6 nM with L929 cells (setting [2]) and 2 nM in the assay on U937 cells (setting [3]).
For `CN1C(=O)[C@@H](NC(=O)c2n[nH]c(Cc3c(Cl)cccc3Cl)n2)COc2ccc(C#CC(C)(C)O)cc21` [Compound I-65, (S)-5-(2,6-dichlorobenzyl)-N-(7-(3-hydroxy-3-methylbut-1-yn-1-yl)-5-methyl-4-oxo-2,3,4,5-tetrahydrobenzo[b][1,4]oxazepin-3-yl)-1H-1,2,4-triazole-3-carboxamide] the same measures were 63.9 nM, 41.5 nM and 42 nM.
With `CN1C(=O)[C@@H](NC(=O)n2cc(Cc3ccccc3)cn2)COc2ccc(N3CC4(CCOCC4)C3)cc21` [Compound I-217, (S)-4-Benzyl-N-(5-methyl-4-oxo-7-(7-oxa-2-azaspiro[3.5]nonan-2-yl)-2,3,4,5-tetrahydrobenzo[b][1,4]oxazepin-3-yl)-1H-pyrazole-1-carboxamide], the IC50 against RIPK1 came to 23.9 nM; in the assay with L929 cells (setting [2]), 597 nM; with U937 cells (setting [3]), 0.5 nM.
For the compound `CCN1C(=O)[C@@H](NC(=O)c2n[nH]c(Cc3cccc(F)c3)n2)COc2ccc(C#CC(C)(C)O)cc21` [Compound I-92, (S)—N-(5-ethyl-7-(3-hydroxy-3-methylbut-1-yn-1-yl)-4-oxo-2,3,4,5-tetrahydrobenzo[b][1,4]oxazepin-3-yl)-5-(3-fluorobenzyl)-1H-1,2,4-triazole-3-carboxamide], the IC50 stood at 932 nM at RIPK1 (setting [1]), 430 nM with L929 cells (setting [2]) and 4840 nM with U937 cells (setting [3]).
